In the supplement of paper PMC10307832:

Key:
Assay in all cases: relative viability (nuclei count vs DMSO), 5 days (fraction); higher = more cells survive
[1] = system: 201T
Procedure, shortened: (§1)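 Medians of duplicate plates are given as relative viability. That measure is the nuclei count in treated wells divided by the count in vehicle wells. Counts were taken on 4× images of lung cancer cell lines in 1536-well plates, 5 days after pin-tool dosing the day after seeding with one drug alone or a fixed anchor-drug dose plus five library-drug doses (not always all listed) in √10 steps.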

[2] = system: BEN
Procedure, shortened: as §1

[3] = system: CAL-12T
Procedure, shortened: as §1

[4] = system: HCC-827
Procedure, shortened: as §1

[5] = system: HOP-62
Procedure, shortened: as §1

[6] = system: LCLC-103H
Procedure, shortened: as §1

[7] = system: LCLC-97TM1
Procedure, shortened: as §1

[8] = system: LXF-289
Procedure, shortened: as §1

[9] = system: NCI-H1355
Procedure, shortened: as §1

[10] = system: NCI-H1395
Procedure, shortened: as §1

[11] = system: NCI-H1437
Procedure, shortened: as §1

[12] = system: NCI-H1650
Procedure, shortened: as §1

[13] = system: NCI-H1793
Procedure, shortened: as §1

[14] = system: NCI-H2023
Procedure, shortened: as §1

[15] = system: NCI-H2087
Procedure, shortened: as §1

[16] = system: NCI-H2228
Procedure, shortened: as §1

[17] = system: NCI-H2405
Procedure, shortened: as §1

[18] = system: NCI-H3122
Procedure, shortened: as §1

[19] = system: NCI-H322M
Procedure, shortened: as §1

[20] = system: NCI-H647
Procedure, shortened: as §1

[21] = system: NCI-H727
Procedure, shortened: as §1

[22] = system: RERF-LC-KJ
Procedure, shortened: as §1

[23] = system: SK-LU-1
Procedure, shortened: as §1

## COc1cc(N2CCC(C(N)=O)CC2)ccc1Nc1nc(N)c(Cl)c(Nc2ccccc2S(=O)(=O)C(C)C)n1 [HG-5-88-01] + COc1cc2c(Oc3ccc(NC(=O)C4(C(=O)Nc5ccc(F)cc5)CC4)cc3F)ccnc2cc1OCCCN1CCOCC1 [Foretinib] (partner 0.25 µM)
[1]; first compound 0.04 µM
  relative viability: 1.18
[1]; first compound 0.1265 µM
  relative viability: 1.09
[1]; first compound 0.4 µM
  relative viability: 1.12
[1]; first compound 1.265 µM
  relative viability: 0.444
[1]; first compound 4 µM
  relative viability: 1.02
[2]; first compound 0.04 µM
  relative viability: 0.399
[2]; first compound 0.1265 µM
  relative viability: 0.702
[2]; first compound 0.4 µM
  relative viability: 0.444
[2]; first compound 1.265 µM
  relative viability: 0.62
[2]; first compound 4 µM
  relative viability: 0.448
[3]; first compound 0.04 µM
  relative viability: 1.06
[3]; first compound 0.1265 µM
  relative viability: 1.19
[3]; first compound 0.4 µM
  relative viability: 1.05
[3]; first compound 1.265 µM
  relative viability: 0.963
[3]; first compound 4 µM
  relative viability: 0.945
[4]; first compound 0.04 µM
  relative viability: 1.06
[4]; first compound 0.1265 µM
  relative viability: 1.12
[4]; first compound 0.4 µM
  relative viability: 1.05
[4]; first compound 1.265 µM
  relative viability: 0.965
[4]; first compound 4 µM
  relative viability: 0.579
[5]; first compound 0.04 µM
  relative viability: 1.15
[5]; first compound 0.1265 µM
  relative viability: 1.12
[5]; first compound 0.4 µM
  relative viability: 1.01
[5]; first compound 1.265 µM
  relative viability: 1.13
[5]; first compound 4 µM
  relative viability: 1.3
[6]; first compound 0.04 µM
  relative viability: 0.767
[6]; first compound 0.1265 µM
  relative viability: 0.745
[6]; first compound 0.4 µM
  relative viability: 0.745
[6]; first compound 1.265 µM
  relative viability: 0.757
[6]; first compound 4 µM
  relative viability: 0.75
[7]; first compound 0.04 µM
  relative viability: 0.893
[7]; first compound 0.1265 µM
  relative viability: 0.972
[7]; first compound 0.4 µM
  relative viability: 0.882
[7]; first compound 1.265 µM
  relative viability: 0.864
[7]; first compound 4 µM
  relative viability: 0.326
[8]; first compound 0.04 µM
  relative viability: 1.04
[8]; first compound 0.1265 µM
  relative viability: 0.937
[8]; first compound 0.4 µM
  relative viability: 0.977
[8]; first compound 1.265 µM
  relative viability: 0.977
[8]; first compound 4 µM
  relative viability: 1.05
[9]; first compound 0.04 µM
  relative viability: 1.01
[9]; first compound 0.1265 µM
  relative viability: 1.05
[9]; first compound 0.4 µM
  relative viability: 0.929
[9]; first compound 1.265 µM
  relative viability: 0.96
[9]; first compound 4 µM
  relative viability: 0.696
[10]; first compound 0.04 µM
  relative viability: 0.988
[10]; first compound 0.1265 µM
  relative viability: 1.06
[10]; first compound 0.4 µM
  relative viability: 1.04
[10]; first compound 1.265 µM
  relative viability: 0.859
[10]; first compound 4 µM
  relative viability: 0.999
[11]; first compound 0.04 µM
  relative viability: 1.27
[11]; first compound 0.1265 µM
  relative viability: 1.28
[11]; first compound 0.4 µM
  relative viability: 0.912
[11]; first compound 1.265 µM
  relative viability: 1.2
[11]; first compound 4 µM
  relative viability: 1.37
[12]; first compound 0.04 µM
  relative viability: 1.11
[12]; first compound 0.1265 µM
  relative viability: 1.2
[12]; first compound 0.4 µM
  relative viability: 1.26
[12]; first compound 1.265 µM
  relative viability: 0.751
[12]; first compound 4 µM
  relative viability: 0.836
[13]; first compound 0.1265 µM
  relative viability: 0.787
[13]; first compound 0.4 µM
  relative viability: 0.615
[13]; first compound 4 µM
  relative viability: 0.423
[14]; first compound 0.04 µM
  relative viability: 1
[14]; first compound 0.1265 µM
  relative viability: 0.899
[14]; first compound 0.4 µM
  relative viability: 0.628
[14]; first compound 1.265 µM
  relative viability: 0.399
[14]; first compound 4 µM
  relative viability: 0.507
[15]; first compound 0.04 µM
  relative viability: 1.13
[15]; first compound 0.1265 µM
  relative viability: 1.24
[15]; first compound 0.4 µM
  relative viability: 1.06
[15]; first compound 1.265 µM
  relative viability: 1.14
[15]; first compound 4 µM
  relative viability: 0.864
[16]; first compound 0.04 µM
  relative viability: 0.593
[16]; first compound 0.1265 µM
  relative viability: 0.327
[16]; first compound 0.4 µM
  relative viability: 0.353
[16]; first compound 1.265 µM
  relative viability: 0.219
[16]; first compound 4 µM
  relative viability: 0.27
[17]; first compound 0.04 µM
  relative viability: 1.08
[17]; first compound 0.1265 µM
  relative viability: 1.03
[17]; first compound 0.4 µM
  relative viability: 0.974
[17]; first compound 1.265 µM
  relative viability: 0.571
[17]; first compound 4 µM
  relative viability: 0.895
[18]; first compound 0.04 µM
  relative viability: 0.891
[18]; first compound 0.1265 µM
  relative viability: 0.684
[18]; first compound 0.4 µM
  relative viability: 0.205
[18]; first compound 1.265 µM
  relative viability: 0.169
[18]; first compound 4 µM
  relative viability: 0.15
[19]; first compound 0.04 µM
  relative viability: 0.927
[19]; first compound 0.1265 µM
  relative viability: 0.782
[19]; first compound 0.4 µM
  relative viability: 0.635
[19]; first compound 4 µM
  relative viability: 0.759
[20]; first compound 0.04 µM
  relative viability: 1.33
[20]; first compound 0.1265 µM
  relative viability: 1.07
[20]; first compound 0.4 µM
  relative viability: 1.28
[20]; first compound 1.265 µM
  relative viability: 1.05
[20]; first compound 4 µM
  relative viability: 1.31
[21]; first compound 0.04 µM
  relative viability: 1.07
[21]; first compound 0.1265 µM
  relative viability: 0.843
[21]; first compound 0.4 µM
  relative viability: 0.811
[21]; first compound 1.265 µM
  relative viability: 0.55
[21]; first compound 4 µM
  relative viability: 0.581
[22]; first compound 0.04 µM
  relative viability: 0.869
[22]; first compound 0.1265 µM
  relative viability: 0.849
[22]; first compound 0.4 µM
  relative viability: 0.839
[22]; first compound 1.265 µM
  relative viability: 0.836
[22]; first compound 4 µM
  relative viability: 0.846
[23]; first compound 0.04 µM
  relative viability: 0.839
[23]; first compound 0.1265 µM
  relative viability: 0.834
[23]; first compound 0.4 µM
  relative viability: 0.751
[23]; first compound 1.265 µM
  relative viability: 0.738
[23]; first compound 4 µM
  relative viability: 0.618

## CC(C)Oc1cc(Nc2nc(N[C@@H](C)c3ccc(F)cn3)ncc2Cl)n[nH]1 [AZ23] + COc1cc2c(Oc3ccc(NC(=O)C4(C(=O)Nc5ccc(F)cc5)CC4)cc3F)ccnc2cc1OCCCN1CCOCC1 [Foretinib] (partner 0.25 µM)
[1]; first compound 0.03162 µM
  relative viability: 1.28
[1]; first compound 0.3162 µM
  relative viability: 1.13
[2]; first compound 0.01 µM
  relative viability: 0.625
[2]; first compound 0.03162 µM
  relative viability: 0.807
[2]; first compound 0.3162 µM
  relative viability: 0.772
[3]; first compound 0.03162 µM
  relative viability: 1.14
[3]; first compound 0.3162 µM
  relative viability: 0.884
[4]; first compound 0.01 µM
  relative viability: 1.05
[4]; first compound 0.03162 µM
  relative viability: 1.09
[4]; first compound 0.3162 µM
  relative viability: 1.11
[5]; first compound 0.01 µM
  relative viability: 1.33
[5]; first compound 0.03162 µM
  relative viability: 1.15
[5]; first compound 0.3162 µM
  relative viability: 1.3
[6]; first compound 0.01 µM
  relative viability: 0.729
[6]; first compound 0.03162 µM
  relative viability: 0.817
[6]; first compound 0.3162 µM
  relative viability: 0.78
[7]; first compound 0.01 µM
  relative viability: 0.922
[7]; first compound 0.03162 µM
  relative viability: 0.928
[7]; first compound 0.3162 µM
  relative viability: 1.01
[8]; first compound 0.01 µM
  relative viability: 1.14
[8]; first compound 0.03162 µM
  relative viability: 0.977
[8]; first compound 0.3162 µM
  relative viability: 0.949
[9]; first compound 0.01 µM
  relative viability: 1.21
[9]; first compound 0.03162 µM
  relative viability: 1.07
[9]; first compound 0.3162 µM
  relative viability: 1.01
[10]; first compound 0.03162 µM
  relative viability: 1.02
[10]; first compound 0.3162 µM
  relative viability: 1
[11]; first compound 0.01 µM
  relative viability: 1.37
[11]; first compound 0.03162 µM
  relative viability: 1.35
[11]; first compound 0.3162 µM
  relative viability: 1.4
[12]; first compound 0.03162 µM
  relative viability: 1.51
[12]; first compound 0.3162 µM
  relative viability: 1.23
[13]; first compound 0.01 µM
  relative viability: 0.879
[13]; first compound 0.03162 µM
  relative viability: 0.859
[13]; first compound 0.3162 µM
  relative viability: 0.713
[14]; first compound 0.03162 µM
  relative viability: 0.88
[14]; first compound 0.3162 µM
  relative viability: 0.924
[15]; first compound 0.01 µM
  relative viability: 1.49
[15]; first compound 0.03162 µM
  relative viability: 1.09
[15]; first compound 0.3162 µM
  relative viability: 1.02
[16]; first compound 0.01 µM
  relative viability: 1.06
[16]; first compound 0.03162 µM
  relative viability: 1.26
[16]; first compound 0.3162 µM
  relative viability: 0.875
[17]; first compound 0.01 µM
  relative viability: 1.04
[17]; first compound 0.03162 µM
  relative viability: 1.05
[17]; first compound 0.3162 µM
  relative viability: 1.04
[18]; first compound 0.01 µM
  relative viability: 1.15
[18]; first compound 0.03162 µM
  relative viability: 0.918
[18]; first compound 0.3162 µM
  relative viability: 0.981
[19]; first compound 0.03162 µM
  relative viability: 0.96
[19]; first compound 0.3162 µM
  relative viability: 1.04
[20]; first compound 0.01 µM
  relative viability: 1.24
[20]; first compound 0.03162 µM
  relative viability: 1.24
[20]; first compound 0.3162 µM
  relative viability: 1.44
[21]; first compound 0.01 µM
  relative viability: 0.789
[21]; first compound 0.03162 µM
  relative viability: 0.852
[21]; first compound 0.3162 µM
  relative viability: 1.1
[22]; first compound 0.01 µM
  relative viability: 1.09
[22]; first compound 0.03162 µM
  relative viability: 0.877
[22]; first compound 0.3162 µM
  relative viability: 0.852
[23]; first compound 0.03162 µM
  relative viability: 0.969
[23]; first compound 0.3162 µM
  relative viability: 0.821
